Data set [1] has as its system K562. The experiment in a line: Cell cycle arrest in human K562 cells as assessed as accumulation at G2/M phase at 1 uM after 24 hrs by propidium iodide staining-based flow cytometric analysis relative to control. The format is functional. A general note: Flow cytometry measures light scatter and fluorescence of single cells or particles in a stream.
Data set [2] has as its system K562. The experiment in a line: Cell cycle arrest in human K562 cells as assessed as accumulation at sub-G1 phase at 1 uM after 48 hrs by propidium iodide staining-based flow cytometric analysis relative to control. The format is functional.
Data set [3] relates to K562. The experiment in a line: Cell cycle arrest in human K562 cells as assessed as accumulation at G1 phase at 0.5 uM after 48 hrs by propidium iodide staining-based flow cytometric analysis relative to control. Type of data set: functional.
Data set [4] concerns WI-38. The experiment in a line: Antiproliferative activity against human WI38 cells after 72 hrs by MTT assay. The format is cell-based.
The next data set concerns SW-620. The experiment in a line: Cell cycle arrest in human SW620 cells as assessed as accumulation at G2/M phase at 0.1 uM after 24 hrs by propidium iodide staining-based flow cytometric analysis relative to control. The format is functional.
Data set [5] has as its system WI-38. The experiment in a line: Cell cycle arrest in human WI38 cells as assessed as accumulation at G1 phase at 1 uM after 24 hrs by propidium iodide staining-based flow cytometric analysis relative to control. Particulars: wi-38, 24 h.
The test system of data set [6] is WI-38. The experiment in a line: Cell cycle arrest in human WI38 cells as assessed as accumulation at G1 phase at 0.1 uM after 48 hrs by propidium iodide staining-based flow cytometric analysis relative to control. To be noted: wi-38, 48 h.
For data set [7], the system named is MCF7. The experiment in a line: Cell cycle arrest in human MCF7 cells as assessed as accumulation at S phase at 1 uM after 24 hrs by propidium iodide staining-based flow cytometric analysis relative to control. The format is functional.
The test system of data set [8] is MCF7. The experiment in a line: Cell cycle arrest in human MCF7 cells as assessed as accumulation at G1 phase at 1 uM after 48 hrs by propidium iodide staining-based flow cytometric analysis relative to control. The format is functional.
Data set [9] concerns MCF7. The experiment in a line: Cell cycle arrest in human MCF7 cells as assessed as accumulation at G2/M phase at 1 uM after 48 hrs by propidium iodide staining-based flow cytometric analysis relative to control. The format is functional.

The structures appear in SMILES notation.

Turning to `COCn1c(CC(COCc2ccccc2)COCc2ccccc2)c(C)c(=O)n(COC)c1=O`, the Activity is reported as 18.4% with K562 [1]; 4.2% in the data set with K562 [2]; 64.4% with K562 [3]; “Dose-dependent effect” with WI-38 [4] (human, wi-38, 72 h); 21.7% in the data set with SW-620; 70.1% in the data set on WI-38 [5]. The Activity in the data set with WI-38 [6] is on record as 48.5%; in the data set on MCF7 [7] it was 8.1%; in the data set on MCF7 [8] it was 11.5%; in the data set on MCF7 [9], 3.8%. The same compound yielded a half-inhibitory concentration (IC50) with WI-38 [4] (Homo sapiens, WI-38, 72 h) of 300 nM.

Usually IC50 stands for the concentration that gives 50% inhibition.

(Values after ChEMBL document CHEMBL3286303, “Synthesis and in vitro antiproliferative evaluation of novel N-alkylated 6-isobutyl- and propyl pyrimidine derivatives” (Bioorg Med Chem Lett, 2014).)
